Data published in publication PMC8815882, “Screening the pandemic response box identified benzimidazole carbamates, Olorofim and ravuconazole as promising drug candidates for the treatment of eumycetoma” (PLoS Neglected Tropical Diseases, 2022).
Like-named read-outs stand apart in the source and are kept apart here. Peptide text beside a SMILES is read from it.

System: M. mycetomatis genome strain MM55
Assay: CLSI M38-A2 based in vitro susceptibility screening (XTT or resazurin), growth at fixed concentration
Assay type: cell-based, Madurella mycetomatis
Details: for activity at 25 µM / activity at 100 µM / Percent fungal survival at 100 µM: Madurella mycetomatis; for Percent fungal survival at 100 µM: replicate 2, read-out: Percentage survival at 100um, 100 uM A (second replicate column)
[1] = 25 uM, mean of three replicates, read-out: Percentage survival at 25um, 25 uM mean
[2] = 25 uM, replicate A, read-out: Percentage survival at 25um, 25 um A
[3] = 25 uM, replicate B, read-out: Percentage survival at 25um, 25 uM B
[4] = 25 uM, replicate C, read-out: Percentage survival at 25um, 25 uM C
[5] = 100 uM, mean of three replicates, read-out: Percentage survival at 100um, 100 uM mean
[6] = 100 uM, replicate 1, read-out: Percentage survival at 100um, 100 uM A (first replicate column)
[7] = 100 uM, replicate 3, read-out: Percentage survival at 100um, 100 uM A (third replicate column)
[8] = 25 uM, mean, read-out: Percentage survival at 25um, 25 uM mean
[9] = 100 uM, mean, read-out: Percentage survival at 100um, 100 uM mean
[10] = 100 uM, replicate (first column), read-out: Percentage survival at 100um, 100 uM A
[11] = 100 uM, replicate (second column), read-out: Percentage survival at 100um, 100 uM A
[12] = 100 uM, replicate (third column), read-out: Percentage survival at 100um, 100 uM A
[13] = 100 uM, first replicate column, read-out: Percentage survival at 100um, 100 uM A
[14] = 100 uM, second replicate column, read-out: Percentage survival at 100um, 100 uM A
[15] = 100 uM, third replicate column, read-out: Percentage survival at 100um, 100 uM A
[16] = 25 uM, mean of replicates, MM55, read-out: Percentage survival at 25um, 25 uM mean
[17] = 25 uM, replicate A, MM55, read-out: Percentage survival at 25um, 25 um A
[18] = 25 uM, replicate B, MM55, read-out: Percentage survival at 25um, 25 uM B
[19] = 25 uM, replicate C, MM55, read-out: Percentage survival at 25um, 25 uM C
[20] = 100 uM, mean of replicates, MM55, read-out: Percentage survival at 100um, 100 uM mean
[21] = 100 uM, replicate 1, MM55, read-out: Percentage survival at 100um, 100 uM A
[22] = 100 uM, replicate 2, MM55, read-out: Percentage survival at 100um, 100 uM A
[23] = 100 uM, replicate 3, MM55, read-out: Percentage survival at 100um, 100 uM A

SMILES	activity at 25 µM [1]	activity at 25 µM [2]	activity at 25 µM [3]	activity at 25 µM [4]	activity at 100 µM [5]	activity at 25 µM [16]	activity at 25 µM [17]	activity at 25 µM [18]	activity at 25 µM [19]	activity at 100 µM [20]	activity at 100 µM [21]	activity at 100 µM [22]	activity at 100 µM [23]	also measured
CC(N)C(=O)NC(CCCCN)C(=O)NC(CCCNC(=N)N)C(=O)NC(Cc1c[nH]cn1)C(=O)NC(Cc1c[nH]cn1)C(=O)NCC(=O)NC(Cc1ccc(O)cc1)C(=O)NC(CCCCN)C(=O)NC(CCCNC(=N)N)C(=O)NC(CCCCN)C(=O)NC(Cc1ccccc1)C(=O)NC(Cc1c[nH]cn1)C(N)=O (stereo not shown) [MMV1579849] (H-AKRHHGYKRKFH-NH2; configuration not given here)	–	–	–	–	–	–	–	–	–	–	–	–	–	Percentage survival at 25um, 25 uM mean (25 uM, mean of three, M. mycetomatis MM55): 88.4824%; Percentage survival at 25um, 25 um A (25 uM, replicate A, M. mycetomatis MM55): 86.8656%; Percentage survival at 25um, 25 uM B (25 uM, replicate B, M. mycetomatis MM55): 93.5744%; Percentage survival at 25um, 25 uM C (25 uM, replicate C, M. mycetomatis MM55): 85.0073%; Percentage survival at 100um, 100 uM mean (100 uM, mean of three, M. mycetomatis MM55): 95.7644%; Percentage survival at 100um, 100 uM A (first replicate column) (100 uM, replicate 1, M. mycetomatis MM55): 92.1348%; Percentage survival at 100um, 100 uM A (second replicate column) (100 uM, replicate 2, M. mycetomatis MM55): 102.447%; Percentage survival at 100um, 100 uM A (third replicate column) (100 uM, replicate 3, M. mycetomatis MM55): 92.7112%
N[C@@H]1CN(c2c(F)cc3c(=O)c(C(=O)O)cn([C@@H]4C[C@@H]4F)c3c2Cl)CC12CC2 [MMV1579850]	85.6%	82.4%	85.7%	88.6%	83.7%	–	–	–	–	–	–	–	–	activity at 100 µM [6]: 86.1%; Percent fungal survival at 100 µM (100 uM): 82.9%; activity at 100 µM [7]: 82%
O=C(O)c1ccccc1Sc1ncnc2sc3c(c12)CCC3 [MMV1579878]	–	89.3%	87%	74.1%	–	–	–	–	–	–	–	–	–	activity at 25 µM [8]: 83.5%; activity at 100 µM [9]: 57%; activity at 100 µM [10]: 1.56%; activity at 100 µM [11]: 73.3%; activity at 100 µM [12]: 96.2%
COc1cc(NCc2ccc3nc(N)nc(N)c3c2C)cc(OC)c1OC [MMV1580173]	–	96.5%	46.2%	78.3%	–	–	–	–	–	–	–	–	–	activity at 25 µM [8]: 73.6%; activity at 100 µM [9]: 55.4%; activity at 100 µM [10]: 74.1%; activity at 100 µM [11]: 4.19%; activity at 100 µM [12]: 88%
C[C@H](Cn1cnc2c(N)ncnc21)OCP(=O)(O)O [MMV1580478]	99.2%	98.1%	110%	89.5%	89%	–	–	–	–	–	–	–	–	activity at 100 µM [13]: 94.5%; activity at 100 µM [14]: 87.6%; activity at 100 µM [15]: 84.8%
CN(C)CC(=O)Nc1ccc2[nH]c(=O)c3ccccc3c2c1 [MMV1580480]	–	–	–	–	–	94.3%	106%	107%	70.4%	76.4%	87.1%	63.4%	78.7%	–
COc1ccccc1NC(=O)c1ccccc1Sc1ccc([N+](=O)[O-])cc1 [MMV1580484]	65.2%	65.9%	69.7%	60.2%	60.4%	–	–	–	–	–	–	–	–	activity at 100 µM [13]: 60.9%; activity at 100 µM [14]: 56%; activity at 100 µM [15]: 64.4%
COc1ccc(OCc2ccc(COc3c(Cl)cccc3Cl)cc2)c(Cl)c1 [MMV1580485]	–	–	–	–	–	89.3%	92.6%	89.4%	85.7%	77.9%	89.9%	70.7%	73.2%	–
Cc1nc(N(C)C(=O)Cc2ccc(-c3ccccn3)cc2)sc1S(N)(=O)=O [MMV1580486]	–	–	–	–	–	82.6%	102%	96.5%	49.6%	83.5%	93.3%	93.6%	63.7%	–
C/C(=N\NC(=O)C1CC1c1ccccc1)c1ccc(NC(=O)c2ccco2)cc1 (stereo not shown) [MMV1580487]	–	–	–	–	–	83.7%	79.1%	93.7%	78.4%	85.2%	91.2%	88%	76.5%	–
CN(C)CCCNC(=O)c1ccc(-c2cc(O)c3ncccc3c2)cc1 [MMV1580488]	–	–	–	–	–	54.3%	72%	76.2%	14.8%	9.5%	10.5%	5.72%	12.3%	–
CC[N+]1(C/C2=C/CCCCCC2)CCC(NC(=O)C2c3cc(Cl)ccc3Oc3ccc(Cl)cc32)CC1 (stereo not shown) [MMV1580489]	93.8%	90.3%	102%	88.6%	-2.01%	–	–	–	–	–	–	–	–	activity at 100 µM [13]: -9.19%; activity at 100 µM [14]: -1.42%; activity at 100 µM [15]: 4.58%
c1cnc(NCc2ccc(CNc3ncccn3)cc2)nc1 [MMV1580490]	–	–	–	–	–	71%	53.2%	76.7%	83.1%	66.3%	67.3%	32.6%	98.8%	–
CCOC(=O)/C=C/[C@H](C[C@@H]1CCNC1=O)NC(=O)[C@@H](CC(=O)[C@@H](NC(=O)c1cc(C)on1)C(C)C)Cc1ccc(F)cc1 [MMV1580491]	96.1%	96.2%	112%	79.9%	93.9%	–	–	–	–	–	–	–	–	activity at 100 µM [6]: 99.7%; Percent fungal survival at 100 µM (100 uM): 86.7%; activity at 100 µM [7]: 95.4%
O=C(/C=C\n1cnc(-c2cc(C(F)(F)F)cc(C(F)(F)F)c2)n1)NNc1ccccn1 [MMV1580493]	–	79.7%	83.9%	40.3%	–	–	–	–	–	–	–	–	–	activity at 25 µM (25 uM, mean of replicates, read-out: Percentage survival at 25um, 25 uM mean): 67.9%; activity at 100 µM (100 uM, mean of replicates, read-out: Percentage survival at 100um, 100 uM mean): 77.3%; activity at 100 µM [6]: 119%; Percent fungal survival at 100 µM (100 uM): 80%; activity at 100 µM [7]: 32.4%
CCC[C@H](NC(=O)[C@@H]1[C@H]2CCC[C@H]2CN1C(=O)[C@@H](NC(=O)[C@@H](NC(=O)c1cnccn1)C1CCCCC1)C(C)(C)C)C(=O)C(=O)NC1CC1 [MMV1580494]	–	–	–	–	–	85.9%	89.9%	95.2%	72.5%	89.5%	96.1%	101%	71.1%	–
Nc1cnn(C2OC(CO)C(O)C2O)c(=O)n1 (stereo not shown) [MMV1580495]	87.3%	82%	95.9%	84%	82%	–	–	–	–	–	–	–	–	activity at 100 µM [13]: 88.8%; activity at 100 µM [14]: 84.2%; activity at 100 µM [15]: 72.9%
NC(=S)N/N=C/c1ncccc1N [MMV1580496]	–	–	–	–	–	67.8%	65.1%	79%	59.3%	44.6%	65.1%	56.6%	12%	–
CC(C)(C)NC(=O)N[C@H](C(=O)N1C[C@H]2[C@@H]([C@H]1C(=O)NC(CC1CCC1)C(=O)C(N)=O)C2(C)C)C(C)(C)C (stereo partly shown) [MMV1580497]	88.1%	89.4%	98%	76.8%	93.6%	–	–	–	–	–	–	–	–	activity at 100 µM [13]: 98.5%; activity at 100 µM [14]: 87.9%; activity at 100 µM [15]: 94.6%
O=C(O)C[C@H]1CC[C@H](c2ccc(-c3ccc(Nc4ccc(C(F)(F)F)nc4)cn3)cc2)CC1 [MMV1580498]	–	–	–	–	–	72.2%	72.4%	58.9%	85.2%	80.6%	82.3%	88.6%	70.8%	–
